Experimental data as given in US20250091994A1, “RAS/RAF BINDING INHIBITOR COMPOUND” (NATIONAL UNIVERSITY CORPORATION KOBE UNIVERSITY, priority 2021, published 2025).
Like-named read-outs stand apart in the source and are kept apart here.

Experiments:
[1] = target: GTPγS-bound human HRasG12V / human c-Raf-1 Ras binding domain (RBD) (Homo sapiens (Human), UniProt P01112, G12V); experiment: Ras-Raf binding inhibition ELISA
Method: The in vitro Ras-Raf binding inhibitory activity of the compound of the present invention was evaluated by an ELISA method (Enzyme-Linked ImmunoSorbent Assay) described below.
Ras and Raf used upon the evaluation were purified and activated by the following method.
Using a pGEX6P-1 vector (GE Healthcare), human HRasG12V (full length, 1-189 amino acid residues) and human c-Raf-1 Ras binding domain (RBD) (50-131 amino acid residues) were each allowed to express as a fusion body with glutathione S-transferase (GST) in E. coli.
GST-HRasG12V-expressing cells were subjected to ultrasonication in a buffer {50 mM Tris-HCl pH 7.4, 150 mM NaCl, 5 mM MgCl2, 1 mM ethylenediaminetetraacetic acid (EDTA), 1 mM dithiothreitol (DTT), 10% glycerol, and 1% Triton-X100}, and were then centrifuged at 100,000×g for 30 minutes, so as to collect the supernatant as a Ras protein fraction. HRasG12V in the supernatant was immobilized on a glutathione-agarose resin, and GST was then cleaved with PreScission Protease (GE Healthcare) for purification. The obtained HRasG12V was mixed with guanosine 5′-O-[gamma-thio]triphosphate trisodium salt (GTPTS) of 1000 times higher concentration at 30° C. for 1 hour, and thereafter, 20 mM MgCl2 (final concentration) was added to stop the reaction and collect the GTPgS-loaded HRasG12V as a product.
On the other hand, GST-c-Raf-1 RBD-expressing cells were subjected to ultrasonication in the same buffer as described above, and were then centrifuged at 100,000×g for 30 minutes, so as to collected the supernatant as a GST-c-Raf-1 RBD protein fraction.
The in vitro Ras-Raf binding inhibitory activity of the compound of the present invention was evaluated by an ELISA method described below.
GST-c-Raf-1 RBD diluted with a Ras-Raf binding buffer (50 mM Tris-HCl pH7.4, 150 mM NaCl, 5 mM MgCl2, 1 mM EDTA, and 1% Triton-X100) was added to each well of a glutathione-coated 96-well plate (Thermo Fisher Scientific.), and was incubated at 30° C. for 1 hour, to immobilize Raf on the well. The unbound free Raf was eliminated by washing the well with the Ras-Raf binding buffer three times. Subsequently, GTPTS-bound HRasG12V diluted with the Ras-Raf binding buffer and each compound solution (final DMSO concentration: 10%) were applied to each well, and the resulting mixture was then incubated at 30° C. for 1 hour, so that Ras and Raf were allowed to bind to each other. Thereafter, the plate was washed with the Ras-Raf binding buffer twice, and was then subjected to a blocking treatment at room temperature for 20 minutes, using TBS-Tween {10 mM Tris-HCl pH 7.4, 150 mM NaCl, and 0.05% (w/v) Tween-20}-5% (w/v) bovine serum albumin (BSA). After that, an anti-HRas antibody (C-20, Santa Cruz) or an anti-HRas antibody (259, Santa Cruz), which had been 1000 times diluted with TBS-Tween-5% BSA, was added to the reaction mixture, and incubated at room temperature for 1 hours. After the treatment with the primary antibody, the plate was washed with TBS-Tween-5% BSA three times, and a horseradish peroxidase-labeled secondary antibody against rabbit immunoglobulin G (GE Healthcare) of 1000 times diluted with TBS-Tween-5% BSA, was added to the plate, followed by incubation at room temperature for 1 hour. After the treatment with the secondary antibody, the plate was washed with TBS-Tween-5% BSA three times, and a substrate solution (TMB) was then added to the plate, followed by incubation at room temperature for 15 minutes for coloration. Finally, 2 M H2SO4 was added to stop color development (coloration reaction kit: Nacalai Tesque). The absorbance at 450 nm (OD450) was measured, so that the color intensity was quantified. Inhibition by the test compound was determined according to the following equation: […]
IC50 (*) in which the anti-HRas antibody (259, Santa Cruz) was used

[2] = test system: promyelocytic leukemia cells HL60 (N-RasQ61L); experiment: Cell growth inhibition, suspension cells HL60; format: cell-based; settings: Homo sapiens, HL-60, 72 hours; for inhibition at 3.3 µM: read-out: HL-60 (NRasQ61L) % inhibition at 3.3 μM (**); for inhibition at 1.1 µM: read-out: HL-60 (NRasQ61L) % inhibition at 1.1 μM (*)
Method: (§1) The cell growth inhibitory activity of the compound of the present invention on human culture cells having active-type mutation in Ras was evaluated by the below-mentioned method using suspension cancer cells {acute lymphoblastic leukemia cells CCRF-CEM (K-RasG12D), promyelocytic leukemia cells HL60 (N-RasQ61L), acute lymphoblastic leukemia cells MOLT4 (N-RasG12C), and small cell lung cancer cells SHP77 (K-RasG12V)} and adherent cancer cells {large bowel cancer cells SW480 (K-RasG12V) and large bowel cancer cell SW620 (K-RasG12V)}.
(Case of suspension cells) The cells suspended in a medium containing 0.5% (v/v) fetal bovine serum (FBS) and each compound solution (final DMSO concentration: 1%) were seeded on a 96-well plate (2 to 4×10^4 cells/well), and the resulting mixture was then cultured at 37° C. in the presence of 5% CO2 for 72 hours.
(§2) Thereafter, the number of viable cells was measured using Cell Counting Reagent (Nacalai Tesque) in accordance with the manufacturer's instructions. Inhibition by the test compound was determined according to the following equation: […]

[3] = test system: large bowel cancer cell SW620 (K-RasG12V); experiment: Cell growth inhibition, adherent cells SW620; format: cell-based; settings: Homo sapiens, SW-620, 72 hours; for inhibition at 3.2 µM: read-out: SW620 (KRasG12V) % inhibition at 3.2 μM (***); for inhibition at 1 µM: read-out: SW620 (KRasG12V) % inhibition at 1 μM
Method: as §1
(Case of adherent cells) The cells suspended in a medium containing 10% FBS (1 to 2×10^4 cells/well) were seeded on a 96-well plate, and were then cultured at 37° C. in the presence of […]. Thereafter, the medium was exchanged with a medium containing […], to which each compound solution (final DMSO concentration: […]) had been added, and the cells were then cultured at 37° C. in the presence of […] for 72 hours.
as §2

[4] = anti-HRas antibody C-20, read-out: ELISA IC50 (μM): 1st Ab_C-20
[5] = anti-HRas antibody 259 (*), read-out: ELISA IC50 (μM): 1st Ab_259 (*)

GTPγS-bound human HRasG12V / human c-Raf-1 Ras binding domain (RBD), sequence (P01112 whole entry G12V, the tested form may be a part): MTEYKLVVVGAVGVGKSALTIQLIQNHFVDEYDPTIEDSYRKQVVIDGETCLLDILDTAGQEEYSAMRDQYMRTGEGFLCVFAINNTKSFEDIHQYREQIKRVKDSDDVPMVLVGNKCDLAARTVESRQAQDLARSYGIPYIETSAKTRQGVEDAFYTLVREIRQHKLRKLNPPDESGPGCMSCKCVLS

SMILES | inhibition at 1 µM [1] [%] | IC50 [1, 4] [µM] | inhibition at 3.2 µM [3] [%] | inhibition at 3.3 µM [2] [%] | inhibition at 1 µM [3] [%] | other results
CC(=O)N1C(=Cc2cc(-c3ccc4c(c3)CCNC4=O)c3cc(C(=O)N4CCOCC4)ccc3n2)C(=O)c2ccccc21 (racemic) [Example 147, 6-(2-((1-acetyl-3-oxoindolin-2-ylidene)methyl)-6-(morpholine-4-carbonyl)quinolin-4-yl)-3,4-dihydro-isoquinolin-1(2H)-one] | 66.1 | 0.5 | 92.2 | – | – | inhibition at 3.2 µM ([2]; 3.2 μM (****), read-out: HL-60 (NRasQ61L) % inhibition at 3.2 μM (****)): 59.1%
CC(=O)N1/C(=C\c2cc(-c3cccc(-c4ccccc4)c3)c3cc(C(=O)N4CCOCC4)ccc3n2)C(=O)c2ccccc21 [Example 88, (Z)-2-((4-([1,1′-biphenyl]-3-yl)-6-(morpholine-4-carbonyl)quinolin-2-yl)methylene)-1-acetylindolin-3-one] | – | 0.98 | – | 89 | 46 | –
CC(=O)N1/C(=C\c2cc(-c3ccccc3-c3ccccc3)c3cc(C(=O)N4CCOCC4)ccc3n2)C(=O)c2ccccc21 [Example 89, (Z)-2-((4-([1,1′-biphenyl]-2-yl)-6-(morpholine-4-carbonyl)quinolin-2-yl)methylene)-1-acetylindolin-3-one] | – | 0.5 | – | – | 71 | inhibition at 1.1 µM [2]: 95%
CC(=O)N1/C(=C\c2cc(-c3cccc4cccnc34)c3cc(C(=O)N4CCOCC4)ccc3n2)C(=O)c2ccccc21 [Example 91, (Z)-1-acetyl-2-((6-(morpholine-4-carbonyl)-[4,8′-biquinolin]-2-yl)-methylene)indolin-3-one] | – | 0.87 | – | 97 | 70 | –
CC(=O)N1C(=Cc2cc(-c3cccnc3-c3ccccc3)c3cc(C(=O)N4CCOCC4)ccc3n2)C(=O)c2ccccc21 [Example 94, 1-acetyl-2-((6-(morpholine-4-carbonyl)-4-(2-phenylpyridin-3-yl)quinolin-2-yl)-methylene)indolin-3-one] | – | – | – | 96 | 82 | –
CC(=O)N1/C(=C\c2cc(-c3ccccc3-c3ccccc3)c3cc(C(=O)N4CCN(C5COC5)CC4)ccc3n2)C(=O)c2ccccc21 [Example 95, (Z)-2-((4-([1,1′-biphenyl]-2-yl)-6-(4-(oxetan-3-yl)-piperazine-1-carbonyl)quinolin-2-yl)methylene)-1-acetylindolin-3-one] | – | 0.44 | – | – | 70 | inhibition at 1.1 µM [2]: 88%
CC(=O)N1/C(=C\c2nc3ccc(C(=O)N4CC(C)OC(C)C4)cc3s2)C(=O)c2ccccc21 (stereo not drawn) [Example 100, (Z)-1-acetyl-2-((6-(2,6-dimethyl-morpholine-4-carbonyl)benzo [d]thiazol-2-yl)-methylene)indolin-3-one] | – | – | – | – | – | IC50 [1, 5]: 0.77 µM; inhibition at 10 µM ([2]; 10 μM (***), read-out: HL-60 (NRasQ61L) % inhibition at 10 μM (***)): 87%
CC(=O)N1/C(=C/c2cc(-c3ccnc4ccccc34)c3cc(C(=O)N4CCOCC4)ccc3n2)C(=O)c2ccccc21 [Example 117, (E)-1-acetyl-2-((6-(morpholine-4-carbonyl)-[4,4′-biquinolin]-2-yl)-methylene)indolin-3-one] | – | – | – | 94 | 66 | –
CC(=O)N1/C(=C\c2cc(-c3ccccc3-c3ccccc3)c3cc(C(=O)O)ccc3n2)C(=O)c2ccccc21 [Example 128, (Z)-4-([1,1′-biphenyl]-2-yl)-2-((1-acetyl-3-oxo-indolin-2-ylidene)-methyl)quinoline-6-carboxylic acid] | – | 0.49 | – | 96 | 70 | –
CC(=O)N1/C(=C\c2ccc3cc(CNC4CCN(C5COC5)CC4)ccc3n2)C(=O)c2ccccc21 [Example 138, (Z)-1-acetyl-2-((6-(((1-(oxetan-3-yl)piperidin-4-yl)amino)meth-yl)quinolin-2-yl)-methylene)indolin-3-one] | – | – | – | 65 | – | IC50 [1, 5]: 0.88 µM
CC(=O)N1/C(=C\c2cc(-c3cn[nH]c3)c3cc(C(=O)N4CCOCC4)ccc3n2)C(=O)c2ccccc21 [Example 170, (Z)-1-acetyl-2-((6-(morpholine-4-carbonyl)-4-(1H-pyrazol-4-yl)quinolin-2-yl)-methylene)indolin-3-one] | 66.8 | 0.5 | 41.6 | – | – | –
CC(=O)N1/C(=C\c2cc(-c3cnn(C)c3)c3cc(C(=O)N4CCOCC4)ccc3n2)C(=O)c2ccccc21 [Example 171, (Z)-1-acetyl-2-((4-(1-methyl-1H-pyrazol-4-yl)-6-(morpholine-4-carbonyl)quinolin-2-yl)methylene)-indolin-3-one] | 72 | 0.4 | 79.5 | – | – | –
CC(=O)N1/C(=C\c2cc(-c3ncn(C)n3)c3cc(C(=O)N4CCOCC4)ccc3n2)C(=O)c2ccccc21 [Example 188, (Z)-1-acetyl-2-((4-(1-methyl-1H-1,2,4-triazol-3-yl)-6-(morpholine-4-carbonyl)quinolin-2-yl)methylene)-indolin-3-one] | 53.7 | 0.9 | 79.3 | – | – | –
CC(=O)N1/C(=C\c2cc(-c3cnn(C)c3)c3cc(CNC4CCOCC4)ccc3n2)C(=O)c2ccccc21 [Example 205, (Z)-1-acetyl-2-((4-(1-methyl-1H-pyrazol-4-yl)-6-(((tetrahydro-2H-pyran-4-yl)amino)-methyl)quinolin-2-yl)methylene)-indolin-3-one] | 66.3 | 0.7 | 37 | – | – | –
